Reference: the NIST ThermoML archive (doi:10.1021/je030147g)

Legend:
[1] = refractive index (Na D-line) (dimensionless); xn = mol fraction of the nth substance listed; conditions: 101.33 kPa, Liquid
[2] = xn = mol fraction of the nth substance listed; conditions: 101.33 kPa, Liquid

CCCCN(CCCC)CCCC [tributylamine] + ClC=C(Cl)Cl
x1 = 1
Conditions | mass density, 298.15 K [kg/m3] | mass density, 303.15 K [kg/m3] | mass density, 308.15 K [kg/m3] | refractive index, 298.15 K | refractive index, 303.15 K | refractive index, 308.15 K | speed of sound, 298.15 K [m/s] | viscosity, 298.15 K [mPa·s] | viscosity, 303.15 K [mPa·s] | viscosity, 308.15 K [mPa·s]
[1] | – | – | – | 1.4276 | 1.4255 | 1.4228 | – | – | – | –
[2] | 773.3 | 769.2 | 765.7 | – | – | – | 1262 | 1.239 | 1.124 | 1.028

CCCCN(CCCC)CCCC [tributylamine] + c1ccncc1
Conditions | mass density, 298.15 K [kg/m3] | mass density, 303.15 K [kg/m3] | mass density, 308.15 K [kg/m3] | refractive index, 298.15 K | refractive index, 303.15 K | refractive index, 308.15 K | speed of sound, 298.15 K [m/s] | viscosity, 298.15 K [mPa·s] | viscosity, 303.15 K [mPa·s] | viscosity, 308.15 K [mPa·s]
[1], x1 = 0.0977 | – | – | – | 1.4866 | 1.483 | 1.4795 | – | – | – | –
[1], x1 = 0.1951 | – | – | – | 1.4708 | 1.4685 | 1.4662 | – | – | – | –
[1], x1 = 0.2949 | – | – | – | 1.4606 | 1.4574 | 1.4542 | – | – | – | –
[1], x1 = 0.3938 | – | – | – | 1.4513 | 1.4491 | 1.447 | – | – | – | –
[1], x1 = 0.4898 | – | – | – | 1.4464 | 1.4428 | 1.4392 | – | – | – | –
[1], x1 = 0.5884 | – | – | – | 1.4403 | 1.4376 | 1.4348 | – | – | – | –
[1], x1 = 0.6899 | – | – | – | 1.4359 | 1.4335 | 1.4311 | – | – | – | –
[1], x1 = 0.7846 | – | – | – | 1.4333 | 1.43 | 1.4268 | – | – | – | –
[1], x1 = 0.8869 | – | – | – | 1.4303 | 1.4277 | 1.4252 | – | – | – | –
[1], x1 = 1 | – | – | – | 1.4276 | 1.4255 | 1.4228 | – | – | – | –
[2], x1 = 0.0977 | 927.2 | 922.3 | 917.4 | – | – | – | 1363 | 0.895 | 0.833 | 0.771
[2], x1 = 0.1951 | 890.5 | 885.6 | 880.7 | – | – | – | 1333 | 0.914 | 0.849 | 0.783
[2], x1 = 0.2949 | 862.6 | 858 | 853.3 | – | – | – | 1308 | 0.941 | 0.872 | 0.804
[2], x1 = 0.3938 | 841.3 | 836.8 | 832.2 | – | – | – | 1290 | 0.971 | 0.898 | 0.825
[2], x1 = 0.4898 | 824.7 | 820.3 | 815.9 | – | – | – | 1282 | 1.002 | 0.925 | 0.848
[2], x1 = 0.5884 | 810.8 | 806.5 | 802.1 | – | – | – | 1278 | 1.038 | 0.957 | 0.876
[2], x1 = 0.6899 | 799 | 794.7 | 790.5 | – | – | – | 1275 | 1.077 | 0.993 | 0.909
[2], x1 = 0.7846 | 789.9 | 785.7 | 781.6 | – | – | – | 1271 | 1.122 | 1.031 | 0.94
[2], x1 = 0.8869 | 781.6 | 777.5 | 773.3 | – | – | – | 1266 | 1.175 | 1.077 | 0.979
[2], x1 = 1 | 773.9 | 769.2 | 765.7 | – | – | – | 1262 | 1.239 | 1.124 | 1.028
